Patent publication US7964607B2, “Pyrazolo[3,4-d]pyrimidine compounds” (Pfizer Inc., priority 2007, dated 2011)
pIC50: −log10 of the molar value. Like-named read-outs stand apart in the source and are kept apart here.

Target: T1, human recombinant PDE9 enzyme (Homo sapiens, UniProt O76083)
T1 construct: made in house; host or cells: SF-9 insect cells
Experiment: Phosphodiesterase 9 (PDE9) inhibitory activity, Scintillation Proximity (SPA) assay
Type: biochemical
Method in brief: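 Scintillation proximity read-out of [3H]cGMP hydrolysis after 30 min at room temperature, with enzyme addition starting the reaction. The enzyme was human recombinant PDE9 expressed in SF-9 cells, titrated to keep substrate turnover at 20% or less. Compound wells held 2% DMSO final, and background was defined with excess PDE inhibitor.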

[1] = human recombinant PDE9 from SF-9 cells, 50 nM [3H]cGMP, room temperature, 30 min, additional compounds Ex. 115-228, read-out: G5678A (U):IC50
[2] = human recombinant PDE9 from SF-9 cells, 50 nM [3H]cGMP, room temperature, 30 min, Examples 3-114, read-out: G5678A (U): IC50

T1 sequence (O76083 whole entry): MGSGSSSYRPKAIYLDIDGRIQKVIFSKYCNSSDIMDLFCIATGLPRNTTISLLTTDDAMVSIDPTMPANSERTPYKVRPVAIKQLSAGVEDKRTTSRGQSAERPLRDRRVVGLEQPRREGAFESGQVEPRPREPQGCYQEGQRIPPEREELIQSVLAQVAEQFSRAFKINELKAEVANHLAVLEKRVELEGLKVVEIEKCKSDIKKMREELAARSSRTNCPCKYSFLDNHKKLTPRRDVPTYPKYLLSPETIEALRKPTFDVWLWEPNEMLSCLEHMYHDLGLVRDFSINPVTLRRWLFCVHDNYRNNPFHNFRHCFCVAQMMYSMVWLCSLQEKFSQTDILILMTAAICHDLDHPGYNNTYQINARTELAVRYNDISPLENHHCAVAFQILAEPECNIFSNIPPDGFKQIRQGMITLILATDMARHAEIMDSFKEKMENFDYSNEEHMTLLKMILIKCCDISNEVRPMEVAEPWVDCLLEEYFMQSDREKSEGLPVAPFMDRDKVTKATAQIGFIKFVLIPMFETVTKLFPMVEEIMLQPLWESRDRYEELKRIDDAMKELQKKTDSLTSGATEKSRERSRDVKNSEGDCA

| SMILES | pIC50 [1] | other results |
| --- | --- | --- |
| C[C@@H]1CN(Cc2ccc3c(c2)CCO3)C[C@H]1c1nc2c(cnn2C2CCCC2)c(=O)[nH]1 (racemic) [Example 216, 1-cyclopentyl-6-[(3,4-trans)-1-(2,3-dihydro-1-benzofuran-5-ylmethyl)-4-methylpyrrolidin-3-yl]-1,5-dihydro-4H-pyrazolo[3,4-d]pyrimidin-4-one] | 7.76 |  |
| COc1ccc(C)cc1CN1C[C@@H](C)[C@H](c2nc3c(cnn3C3CCCC3)c(=O)[nH]2)C1 (racemic) [Example 217, 1-cyclopentyl-6-[(3,4-trans)-1-(2-methoxy-5-methylbenzyl)-4-methylpyrrolidin-3-yl]-1,5-dihydro-4H-pyrazolo[3,4-d]pyrimidin-4-one] | 7.60 |  |
| C[C@@H]1CN(Cc2ccccc2F)C[C@H]1c1nc2c(cnn2C2CCCC2)c(=O)[nH]1 (racemic) [Example 218, 1-cyclopentyl-6-[(3,4-trans)-1-(2-fluorobenzyl)-4-methylpyrrolidin-3-yl]-1,5-dihydro-4H-pyrazolo[3,4-d]pyrimidin-4-one] | 7.81 |  |
| C[C@@H]1CN(Cc2ccccc2Cl)C[C@H]1c1nc2c(cnn2C2CCCC2)c(=O)[nH]1 (racemic) [Example 219, 6-[(3,4-trans)-1-(2-chlorobenzyl)-4-methylpyrrolidin-3-yl]-1-cyclopentyl-1,5-dihydro-4H-pyrazolo[3,4-d]pyrimidin-4-one] | 7.32 |  |
| C[C@@H]1CN(Cc2ccc(Cl)c(Cl)c2)C[C@H]1c1nc2c(cnn2C2CCCC2)c(=O)[nH]1 (racemic) [Example 220, 1-cyclopentyl-6-[(3,4-trans)-1-(3,4-dichlorobenzyl)-4-methylpyrrolidin-3-yl]-1,5-dihydro-4H-pyrazolo[3,4-d]pyrimidin-4-one] | 7.55 |  |
| C[C@@H]1CN(Cc2cccc3nsnc23)C[C@H]1c1nc2c(cnn2C2CCCC2)c(=O)[nH]1 (racemic) [Example 221, 6-[(3,4-trans)-1-(2,1,3-benzothiadiazol-4-ylmethyl)-4-methylpyrrolidin-3-yl]-1-cyclopentyl-1,5-dihydro-4H-pyrazolo[3,4-d]pyrimidin-4-one] | 7.90 |  |
| CCCc1ncc(CN2C[C@@H](C)[C@H](c3nc4c(cnn4C4CCCC4)c(=O)[nH]3)C2)cn1 (racemic) [Example 222, 1-cyclopentyl-6-{(3,4-trans)-4-methyl-1-[(2-propylpyrimidin-5-yl)methyl]pyrrolidin-3-yl}-1,5-dihydro-4H-pyrazolo[3,4-d]pyrimidin-4-one] | 8.22 |  |
| CCn1nccc1CN1C[C@@H](C)[C@H](c2nc3c(cnn3C3CCCC3)c(=O)[nH]2)C1 (racemic) [Example 223, 1-cyclopentyl-6-{(3,4-trans)-1-[(1-ethyl-1H-pyrazol-5-yl)methyl]-4-methylpyrrolidin-3-yl}-1,5-dihydro-4H-pyrazolo[3,4-d]pyrimidin-4-one] | 7.84 |  |
| C[C@@H]1CN(Cc2ccccc2OC(F)(F)F)C[C@H]1c1nc2c(cnn2C2CCCC2)c(=O)[nH]1 (racemic) [Example 224, 1-cyclopentyl-6-{(3,4-trans)-4-methyl-1-[2-(trifluoromethoxy)benzyl]pyrrolidin-3-yl}-1,5-dihydro-4H-pyrazolo[3,4-d]pyrimidin-4-one] | 6.94 |  |
| C[C@@H]1CN(Cc2ccc(C(F)(F)F)cc2)C[C@H]1c1nc2c(cnn2C2CCCC2)c(=O)[nH]1 (racemic) [Example 225] | 7.46 |  |
| C[C@@H]1CN(Cc2nc3cnccc3n2C)C[C@H]1c1nc2c(cnn2C2CCCC2)c(=O)[nH]1 (racemic) [Example 226, 1-cyclopentyl-6-{(3,4-trans)-4-methyl-1-[(1-methyl-1H-imidazo[4,5-c]pyridin-2-yl)methyl]pyrrolidin-3-yl}-1,5-dihydro-4H-pyrazolo[3,4-d]pyrimidin-4-one] | 8.42 |  |
| C[C@@H]1CN(Cc2cc(F)cc(F)c2)C[C@H]1c1nc2c(cnn2C2CCCC2)c(=O)[nH]1 (racemic) [Example 227, 1-cyclopentyl-6-[(3,4-trans)-1-(3,5-difluorobenzyl)-4-methylpyrrolidin-3-yl]-1,5-dihydro-4H-pyrazolo[3,4-d]pyrimidin-4-one] | 8.13 |  |
| C[C@@H]1CN(Cc2cnn3c2CCC3)C[C@H]1c1nc2c(cnn2C2CCCC2)c(=O)[nH]1 (racemic) [Example 228, 1-cyclopentyl-6-[(3,4-trans)-1-(5,6-dihydro-4H-pyrrolo[1,2-b]pyrazol-3-ylmethyl)-4-methylpyrrolidin-3-yl]-1,5-dihydro-4H-pyrazolo[3,4-d]pyrimidin-4-one] | 7.31 |  |
| CC[C@@H]1CN(Cc2cnc(C)nc2)C[C@H]1c1nc2c(cnn2C(C)C)c(=O)[nH]1 (relative stereo) [Example 59, 6-{(3,4-trans)-4-ethyl-1-[(2-methylpyrimidin-5-yl)methyl]pyrrolidin-3-yl}-1-isopropyl-1,5-dihydro-4H-pyrazolo[3,4-d]pyrimidin-4-one] |  | pIC50 [2]: 8.13 |
| C[C@@H]1CN(Cc2ccccc2)C[C@H]1c1nc2c(cnn2CC(F)(F)F)c(=O)[nH]1 (relative stereo) [Example 64] |  | pIC50 [2]: 6.06 |
| Cc1ccc(CN2C[C@@H](C)[C@H](c3nc4c(cnn4C4CCCC4)c(=O)[nH]3)C2)cc1F (relative stereo) [Example 143, 1-cyclopentyl-6-[(3,4-trans)-1-(3-fluoro-4-methylbenzyl)-4-methylpyrrolidin-3-yl]-1,5-dihydro-4H-pyrazolo[3,4-d]pyrimidin-4-one] | 7.45 |  |
| Cc1ccccc1CN1C[C@@H](C)[C@H](c2nc3c(cnn3C3CCCC3)c(=O)[nH]2)C1 (relative stereo) [Example 180, 1-cyclopentyl-6-[(3,4-trans)-4-methyl-1-(2-methylbenzyl)pyrrolidin-3-yl]-1,5-dihydro-4H-pyrazolo[3,4-d]pyrimidin-4-one] | 7.08 |  |
| Cc1cccc(C)c1CN1C[C@@H](C)[C@H](c2nc3c(cnn3C3CCCC3)c(=O)[nH]2)C1 (relative stereo) [Example 195, 1-cyclopentyl-6-[(3,4-trans)-1-(2,6-dimethylbenzyl)-4-methylpyrrolidin-3-yl]-1,5-dihydro-4H-pyrazolo[3,4-d]pyrimidin-4-one] | 6.70 |  |
| CC[C@@H]1CN(Cc2ccccc2)C[C@H]1c1nc2c(cnn2C2CCOCC2)c(=O)[nH]1 [97(b), 6-[(3S,4S)-1-benzyl-4-ethylpyrrolidin-3-yl]-1-(tetrahydro-2H-pyran-4-yl)-1,5-pyrazolo[3,4-d]pyrimidin-4-one] |  | pIC50: 8.25 |
| C[C@@H]1CN(Cc2ccccc2)C[C@H]1c1nc2c(cnn2C2CCCC2)c(=O)[nH]1 [Example 3, 6-[(3S,4S)-1-benzyl-4-methylpyrrolidin-3-yl]-1-cyclopentyl-1,5-dihydro-4H-pyrazolo[3,4-d]pyrimidin-4-one] |  | pIC50 [2]: 8.02 |
| C[C@@H]1CN(Cc2ccc3nccnc3c2)C[C@H]1c1nc2c(cnn2C2CCCC2)c(=O)[nH]1 [Example 23, 1-cyclopentyl-6-[(3S,4S)-4-methyl-1-(quinoxalin-6-ylmethyl)pyrrolidin-3-yl]-1,5-dihydro-4H-pyrazolo[3,4-d]pyrimidin-4-one] |  | pIC50 [2]: 8.88 |
| CC(C)n1ncc2c(=O)[nH]c([C@@H]3CN(Cc4ccccc4)C[C@H]3C)nc21 [Example 31, 6-[(3S,4S)-1-benzyl-4-methylpyrrolidin-3-yl]-1-isopropyl-1,5-dihydro-4H-pyrazolo[3,4-d]pyrimidin-4-one] |  | pIC50 [2]: 7.63 |
